Reference: patent US20240010620A1, “ARYLAZABICYCLO[2.1.1]HEXYLMETHANOLS DERIVATIVES AND MEDICAL USES THEREOF” (ATROGI AB, priority 2020, published 2024)

Legend:
Type in all cases: cell-based
[1] = tested on: L6-myotubes; experiment: Glucose uptake in differentiated L6-myotubes (3H-2-deoxy-glucose); conditions: agonist final concentration 1×10^−5, 3H-2-deoxy-glucose uptake
Method: L6-myoblasts were grown in Dulbecco's Modified Eagle's Medium (DMEM) containing 4,5 g/I glucose supplemented with 10% fetal bovine serum, 2 mM L-Glutamine, 50 U/ml penicillin, 50 μg/ml streptomycin and 10 mM HEPES. Cells were plated at 1×10^5 cells per ml in 24-well plates. After reaching 90% confluence the cells were grown in medium containing 2% FBS for 7 days where upon cells differentiated into myotubes. Differentiated L6-myotubes were serum-starved over night in medium containing 0.5% fatty-acid free BSA and stimulated with agonist, final concentration 1×10^−5. After 1 h 40 min cells were washed with warm, glucose free medium or PBS and another portion of agonist was added to glucose free medium. After 20 min the cells were exposed to 50 nM ^3H-2-deoxy-glucose for another 10 min before washed in ice cold glucose free medium or PBS and lysed in 0.2 M NaOH for 1 h in 60° C.

[2] = tested on: L6-myotubes; experiment: Measurement of intracellular cAMP levels (alpha screen cAMP kit); conditions: differentiated cells; agonist final concentration 1×10^−5, 15 min; 1 mM IBMX
Method: L6-myoblasts were grown in Dulbecco's Modified Eagle's Medium (DMEM) containing 4,5 g/I glucose supplemented with 10% fetal bovine serum, 2 mM L-Glutamine, 50 U/ml penicillin, 50 μg/ml streptomycin and 10 mM HEPES. Cells were plated at 1×10^5 cells per ml in 24-well plates. After reaching 90% confluence the cells were grown in medium containing 2% FBS for 7 days where upon cells differentiated into myotubes. Differentiated cells were serum-starved over night and stimulated with agonist, final concentration 1×10^−5, for 15 min in stimulation buffer (HBSS supplemented with 1% BSA, 5 mM HEPES and 1 mM IBMX, pH 7.4) The medium was then aspirated and to end the reaction 100 μL of 95% EtOH was added to each well of a 24-well plate and cells were kept in −20° C. over night. The EtOH was let to evaporate and 500 μL of lysis buffer (1% BSA, 5 mM HEPES and 0.3% Tween-20, pH 7.4) was added to each well before put in −80° C. for 30 min and then kept in −20° C. Intracellular cAMP levels were detected using an alpha screen cAMP kit (6760635D from Perkin Elmer). The activity for each compound is compared to that of isoproterenol.

[3] = tested on: L6-myotubes; experiment: Glucose uptake in the presence of the β2-adrenergic receptor antagonist ICI-118,551; conditions: differentiated L6-myotubes; compound 1×10^−5 M; ICI-118,551 1×10^−5 M
Method: L6-myoblasts were grown in Dulbecco's Modified Eagle's Medium (DMEM) containing 4,5 g/I glucose supplemented with 10% fetal bovine serum, 2 mM L-Glutamine, 50 U/ml penicillin, 50 μg/ml streptomycin and 10 mM HEPES. Cells were plated at 1×10^5 cells per ml in 24-well plates. After reaching 90% confluence the cells were grown in medium containing 2% FBS for 7 days where upon cells differentiated into myotubes. Differentiated L6-myotubes were serum-starved overnight in medium containing 0.5% fatty-acid free BSA and were incubated with the β2-adrenergic receptor antagonist ICI-118,551 at a final concentration of 1×10^−5 M for 30 min. The cells were stimulated with a compound of the invention, at a final concentration of 1×10^−5 M. After 1 h 40 min the cells were washed twice with warm, glucose free medium or PBS and additional portions of the compound of the invention and the antagonist were added. After 20 min the cells were exposed to 50 nM ^3H-2-deoxyglucose for 10 min before washed with ice cold glucose free medium or PBS three times and lysed with 0.2 M NaOH, 400 μL/well, for 1 h at 60° C. The cell lysate was mixed with 4 mL scintillation buffer (Emulsifier Safe, Perkin Elmer) and the radioactivity was detected in a β-counter (Tri-Carb 4810TR, Perkin Elmer). The activity for each compound is compared to that of isoproterenol.

Compound	Biological example 1: glucose uptake, activity compared to that of isoproterenol [1]	Biological example 2: intracellular cAMP levels, activity compared to that of isoproterenol [2]	Biological example 3: glucose uptake in the presence of ICI-118,551, activity compared to that of isoproterenol [3]
CC12CC(C1)[C@H]([C@H](O)c1cccc(F)c1)N2.Cl [Example 1, (R)-(3-Fluorophenyl)((R)-1-methyl-2-azabicyclo[2.1.1]hexan-3-yl)methanol hydrochloride]	+++ (activity of more than 75% of that of isoproterenol)	++ (between 75 and 50%)	
CC12CC(C1)[C@@H]([C@@H](O)c1cccc(F)c1)N2.Cl [Example 2, (S)-(3-Fluorophenyl)((S)-1-methyl-2-azabicyclo[2.1.1]hexan-3-yl)methanol hydrochloride]	++ (between 75 and 50%)	− (less than 25%)	
CC12CC(C1)[C@H]([C@@H](O)c1cccc(F)c1)N2.Cl [Example 3, (S)-(3-Fluorophenyl)((R)-1-methyl-2-azabicyclo[2.1.1]hexan-3-yl)methanol hydrochloride]	+ (between 50 and 25%)	− (less than 25%)	
CC12CC(C1)[C@@H]([C@H](O)c1cccc(F)c1)N2.Cl [Example 4, (R)-(3-Fluorophenyl)((S)-1-methyl-2-azabicyclo[2.1.1]hexan-3-yl)methanol hydrochloride]	− (less than 25%)	− (less than 25%)	
CC12CC(C1)[C@H]([C@H](O)c1cccc(Cl)c1)N2.Cl [Example 5, (R)-(3-Chlorophenyl)((R)-1-methyl-2-azabicyclo[2.1.1]hexan-3-yl)methanol hydrochloride]	+++ (activity of more than 75% of that of isoproterenol)	− (less than 25%)	
CC12CC(C1)[C@@H]([C@@H](O)c1cccc(Cl)c1)N2.Cl [Example 6, (S)-(3-Chlorophenyl)((S)-1-methyl-2-azabicyclo[2.1.1]hexan-3-yl)methanol hydrochloride]	+ (between 50 and 25%)	− (less than 25%)	
CC12CC(C1)[C@H]([C@@H](O)c1cccc(Cl)c1)N2.Cl [Example 7, (S)-(3-Chlorophenyl)((R)-1-methyl-2-azabicyclo[2.1.1]hexan-3-yl)methanol hydrochloride]	++ (between 75 and 50%)	− (less than 25%)	
CC12CC(C1)[C@@H]([C@H](O)c1cccc(Cl)c1)N2.Cl [Example 8, (R)-(3-Chlorophenyl)((S)-1-methyl-2-azabicyclo[2.1.1]hexan-3-yl)methanol hydrochloride]	+ (between 50 and 25%)	− (less than 25%)	
CC12CC(C1)[C@H]([C@H](O)c1ccccc1F)N2.Cl [Example 9, (R)-(2-Fluorophenyl)((R)-1-methyl-2-azabicyclo[2.1.1]hexan-3-yl)methanol hydrochloride]	+++ (activity of more than 75% of that of isoproterenol)	+++ (activity of more than 75% of that of isoproterenol)	
CC12CC(C1)[C@@H]([C@@H](O)c1ccccc1F)N2.Cl [Example 10, (S)-(2-Fluorophenyl)((S)-1-methyl-2-azabicyclo[2.1.1]hexan-3-yl)methanol hydrochloride]	+++ (activity of more than 75% of that of isoproterenol)	− (less than 25%)	
CC12CC(C1)[C@H]([C@@H](O)c1ccccc1F)N2.Cl [Example 11]	+++ (activity of more than 75% of that of isoproterenol)	− (less than 25%)	− (less than 25%)
CC12CC(C1)[C@@H]([C@H](O)c1ccccc1F)N2.Cl [Example 12, (R)-(2-Fluorophenyl)((S)-1-methyl-2-azabicyclo[2.1.1]hexan-3-yl)methanol hydrochloride]	+++ (activity of more than 75% of that of isoproterenol)	− (less than 25%)	
CC12CC(C1)[C@H]([C@H](O)c1cncc(F)c1)N2 [Example 13, (R)-(5-Fluoropyridin-3-yl)((R)-1-methyl-2-azabicyclo[2.1.1]hexan-3-yl)-methanol]	+++ (activity of more than 75% of that of isoproterenol)	− (less than 25%)	
CC12CC(C1)[C@@H]([C@@H](O)c1cncc(F)c1)N2 [Example 14, (S)-(5-Fluoropyridin-3-yl)((S)-1-methyl-2-azabicyclo[2.1.1]hexan-3-yl)-methanol]	++ (between 75 and 50%)	− (less than 25%)	
CC12CC(C1)[C@H]([C@@H](O)c1cncc(F)c1)N2 [Example 15, (S)-(5-Fluoropyridin-3-yl)((R)-1-methyl-2-azabicyclo[2.1.1]hexan-3-yl)-methanol]	− (less than 25%)	− (less than 25%)	
CC12CC(C1)[C@@H]([C@H](O)c1cncc(F)c1)N2 [Example 16, (R)-(5-Fluoropyridin-3-yl)((S)-1-methyl-2-azabicyclo[2.1.1]hexan-3-yl)-methanol]	+ (between 50 and 25%)	− (less than 25%)	
CC12CC(C1)[C@H]([C@H](O)c1cccc(N)c1F)N2.Cl [Example 17, (R)-(3-Amino-2-fluorophenyl)((R)-1-methyl-2-azabicyclo[2.1.1]hexan-3-yl)methanol hydrochloride]	+++ (activity of more than 75% of that of isoproterenol)	− (less than 25%)	
CC12CC(C1)[C@@H]([C@@H](O)c1cccc(N)c1F)N2.Cl [Example 18, (S)-(3-Amino-2-fluorophenyl)((S)-1-methyl-2-azabicyclo[2.1.1]hexan-3-yl)methanol hydrochloride]	++ (between 75 and 50%)	− (less than 25%)	
CC12CC(C1)[C@H]([C@@H](O)c1cccc(N)c1F)N2.Cl [Example 19, (S)-(3-Amino-2-fluorophenyl)((R)-1-methyl-2-azabicyclo[2.1.1]hexan-3-yl)methanol hydrochloride]	++ (between 75 and 50%)	− (less than 25%)	
CC12CC(C1)[C@@H]([C@H](O)c1cccc(N)c1F)N2.Cl [Example 20, (R)-(3-Amino-2-fluorophenyl)((S)-1-methyl-2-azabicyclo[2.1.1]hexan-3-yl)methanol hydrochloride]	++ (between 75 and 50%)	− (less than 25%)	
